Assay results from ChEMBL document CHEMBL1201862, “PubChem BioAssay data set” (2004).
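Values below derive from 48-hour exposures of cells grown in 96-well plates, with endpoints linearly interpolated between the two concentrations bracketing the appropriate inhibition level. GI50 is the concentration that inhibits growth by half.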 Activity calls are given as the source filed them. Rule as the data show it: active = GI50 up to about 1.1 µM and inactive = higher.

Legend:
Assay in all cases: NCI tumour cell line growth inhibition, 48 h
786-0 = test system: 786-0
CAKI-1 = test system: CAKI-1
EKVX = test system: EKVX
HL-60 = test system: HL-60
K562 = test system: K562
KM12 = test system: KM12
MOLT-4 = test system: MOLT-4
Malme-3M = test system: Malme-3M
OVCAR-3 = test system: OVCAR-3
SK-MEL-5 = test system: SK-MEL-5
SK-OV-3 = test system: SK-OV-3
UACC-62 = test system: UACC-62
ACHN = test system: ACHN
HCT-15 = test system: HCT-15

| SMILES | GI50 (786-0) | GI50 (CAKI-1) | GI50 (EKVX) | GI50 (HL-60) | GI50 (K562) | GI50 (KM12) | GI50 (MOLT-4) | GI50 (Malme-3M) | GI50 (OVCAR-3) | GI50 (SK-MEL-5) | GI50 (SK-OV-3) | GI50 (UACC-62) | GI50 (ACHN) | GI50 (HCT-15) |
| --- | --- | --- | --- | --- | --- | --- | --- | --- | --- | --- | --- | --- | --- | --- |
| CN(C)CCCCC1CCN(CC(=O)N2c3ccccc3NC(=O)c3ccccc32)CC1 | > 100 µM (inactive) | > 100 µM (inactive) | > 100 µM (inactive) | > 100 µM (inactive) | > 100 µM (inactive) | > 100 µM (inactive) | > 100 µM (inactive) | > 100 µM (inactive) | > 100 µM (inactive) | > 100 µM (inactive) | > 100 µM (inactive) | > 100 µM (inactive) | – | – |
| O=C(OC1CCC2OOC1O2)c1ccc([N+](=O)[O-])cc1 (configuration not stated) | > 100 µM (inactive) | > 100 µM (inactive) | > 100 µM (inactive) | > 100 µM (inactive) | > 100 µM (inactive) | > 100 µM (inactive) | > 100 µM (inactive) | > 100 µM (inactive) | > 100 µM (inactive) | > 100 µM (inactive) | > 100 µM (inactive) | > 100 µM (inactive) | > 100 µM (inactive) | > 100 µM |
| CCCN1C(=O)C/C(=C\C(C)=O)Nc2ccccc21 | > 100 µM (inactive) | > 100 µM (inactive) | > 100 µM (inactive) | – | > 100 µM (inactive) | > 100 µM (inactive) | > 100 µM (inactive) | > 100 µM (inactive) | > 100 µM (inactive) | > 100 µM (inactive) | > 100 µM (inactive) | > 100 µM (inactive) | > 100 µM (inactive) | > 100 µM |
| C[n+]1c2ccccc2c(/C=N\NS(=O)(=O)c2ccc(O)c(C(=O)O)c2)c2ccccc21 | 34.4 µM (inactive) | 28.2 µM (inactive) | 78.9 µM (inactive) | 22.1 µM (inactive) | 27.5 µM (inactive) | 60.3 µM (inactive) | 18.5 µM (inactive) | > 100 µM (inactive) | 49.1 µM (inactive) | 39.8 µM (inactive) | > 100 µM (inactive) | 49.3 µM (inactive) | 80.2 µM (inactive) | 38.7 µM |
| N#C/N=C1\NCCC(=O)N1CCc1c[nH]c2ccccc12 | > 100 µM (inactive) | – | > 100 µM (inactive) | > 100 µM (inactive) | > 100 µM (inactive) | > 100 µM (inactive) | > 100 µM (inactive) | – | > 100 µM (inactive) | > 100 µM (inactive) | > 100 µM (inactive) | > 100 µM (inactive) | – | > 100 µM |
| ClCCCCOC1CCCCO1 (configuration not stated) | > 100 µM (inactive) | > 100 µM (inactive) | > 100 µM (inactive) | > 100 µM (inactive) | – | > 100 µM (inactive) | > 100 µM (inactive) | > 100 µM (inactive) | > 100 µM (inactive) | > 100 µM (inactive) | > 100 µM (inactive) | > 100 µM (inactive) | > 100 µM (inactive) | > 100 µM |
| O=C(c1ccccc1)c1c(-c2ccccc2)sc2nc3ccccc3nc12 | 38.1 µM (inactive) | > 100 µM (inactive) | > 100 µM (inactive) | > 100 µM (inactive) | > 100 µM (inactive) | > 100 µM (inactive) | > 100 µM (inactive) | 92.3 µM (inactive) | > 100 µM (inactive) | 80.9 µM (inactive) | > 100 µM (inactive) | > 100 µM (inactive) | > 100 µM (inactive) | > 100 µM |
| Cc1cc([N+](=O)[O-])ccc1Nc1cccc(Cl)c1C | 14 µM (inactive) | 11.6 µM (inactive) | 20 µM (inactive) | 18.2 µM (inactive) | 11.3 µM (inactive) | 16 µM (inactive) | 14.8 µM (inactive) | 15.2 µM (inactive) | 13.7 µM (inactive) | 15.6 µM (inactive) | 24.3 µM (inactive) | 12.6 µM (inactive) | 17.8 µM (inactive) | 16.8 µM |
| O=c1cccccc1NCCCCCCCCNc1cccccc1=O | > 100 µM (inactive) | > 100 µM (inactive) | 24.9 µM (inactive) | 3.53 µM (inactive) | 7.06 µM (inactive) | > 100 µM (inactive) | 36.1 µM (inactive) | > 100 µM (inactive) | 7.59 µM (inactive) | – | > 100 µM (inactive) | > 100 µM (inactive) | 3.33 µM (inactive) | > 100 µM |
| O=c1cc2ccccc2nn1-c1ccccc1Cl | > 100 µM (inactive) | > 100 µM (inactive) | > 100 µM (inactive) | – | 59.6 µM (inactive) | > 100 µM (inactive) | – | > 100 µM (inactive) | 81.3 µM (inactive) | 69 µM (inactive) | > 100 µM (inactive) | 89.3 µM (inactive) | > 100 µM (inactive) | 92.5 µM |
| CCC(/C=C/c1ccccc1)=N\N=C(\C=C\c1ccccc1)CC | > 100 µM (inactive) | – | > 100 µM (inactive) | > 100 µM (inactive) | > 100 µM (inactive) | > 100 µM (inactive) | > 100 µM (inactive) | > 100 µM (inactive) | > 100 µM (inactive) | > 100 µM (inactive) | > 100 µM (inactive) | > 100 µM (inactive) | > 100 µM (inactive) | > 100 µM |
| O=C1/C(=N\O)S(=O)(=O)c2ccccc21 | > 100 µM (inactive) | > 100 µM (inactive) | – | > 100 µM (inactive) | > 100 µM (inactive) | > 100 µM (inactive) | > 100 µM (inactive) | > 100 µM (inactive) | – | > 100 µM (inactive) | > 100 µM (inactive) | > 100 µM (inactive) | > 100 µM (inactive) | > 100 µM |
| COc1ccccc1/C=C(\C#N)c1ccccc1 | 20 µM (inactive) | 16.6 µM (inactive) | – | – | 11.4 µM (inactive) | 18.5 µM (inactive) | 16.6 µM (inactive) | – | 19.5 µM (inactive) | 16.7 µM (inactive) | 26.7 µM (inactive) | 44.9 µM (inactive) | 59.4 µM (inactive) | 18.4 µM |
| O=C(c1ccccc1)c1oc2ccc(Br)cc2c1-c1cnn(-c2ccccc2)c1 | > 100 µM (inactive) | > 100 µM (inactive) | > 10 µM (inactive) | > 100 µM (inactive) | > 100 µM (inactive) | > 100 µM (inactive) | > 100 µM (inactive) | > 100 µM (inactive) | > 100 µM (inactive) | > 10 µM (inactive) | > 100 µM (inactive) | > 100 µM (inactive) | > 100 µM (inactive) | > 100 µM |
| N=S(=O)(c1ccccc1)c1ccccc1[N+](=O)[O-] (configuration not stated) | > 100 µM (inactive) | > 100 µM (inactive) | > 100 µM (inactive) | > 100 µM (inactive) | > 100 µM (inactive) | > 100 µM (inactive) | > 100 µM (inactive) | > 100 µM (inactive) | > 100 µM (inactive) | > 100 µM (inactive) | > 100 µM (inactive) | > 100 µM (inactive) | > 100 µM (inactive) | > 100 µM |
| O=S(=O)(c1ccccc1)n1cnc(CCc2ccccc2)n1 | > 100 µM (inactive) | > 100 µM (inactive) | – | > 100 µM (inactive) | > 100 µM (inactive) | > 100 µM (inactive) | > 100 µM (inactive) | > 100 µM (inactive) | > 100 µM (inactive) | > 100 µM (inactive) | > 100 µM (inactive) | > 100 µM (inactive) | > 100 µM (inactive) | > 100 µM |
| CCOC(=O)C(=Cc1cccnc1C)C(=O)OCC | 8.51 µM (inactive) | 6.21 µM (inactive) | 16.4 µM (inactive) | 3.78 µM (inactive) | 3.39 µM (inactive) | 3.1 µM (inactive) | 12.6 µM (inactive) | 12.2 µM (inactive) | 2.67 µM (inactive) | 11.8 µM (inactive) | 11.3 µM (inactive) | 6.82 µM (inactive) | 11.9 µM (inactive) | 3.69 µM |
| COC1=CC(=O)c2c(cc3c(c2O)-c2c(OC)cc4cc5c(c(O)c4c2OC(=O)CC(C)(O)C3)C(=O)CC(C)(O)C5)C1=O (configuration not stated) | 2.65 µM (inactive) | 2.23 µM (inactive) | 2.27 µM (inactive) | 1.34 µM (inactive) | 2.44 µM (inactive) | 2.41 µM (inactive) | 2.27 µM (inactive) | 1.82 µM (inactive) | 0.577 µM (active) | 0.237 µM (active) | 2.76 µM (inactive) | 1.19 µM (inactive) | 2.64 µM (inactive) | 1.95 µM |
| O=C1c2ccccc2-c2cccc3ccc(Cc4ccccc4)c1c23 | > 100 µM (inactive) | – | > 100 µM (inactive) | > 100 µM (inactive) | 37.6 µM (inactive) | > 100 µM (inactive) | > 100 µM (inactive) | > 100 µM (inactive) | > 100 µM (inactive) | > 100 µM (inactive) | – | > 100 µM (inactive) | > 100 µM (inactive) | > 100 µM |
| COC(=O)C(=O)C(C#N)c1c(Cl)cccc1Cl (configuration not stated) | > 100 µM (inactive) | > 100 µM (inactive) | > 100 µM (inactive) | > 100 µM (inactive) | > 100 µM (inactive) | – | > 100 µM (inactive) | > 100 µM (inactive) | > 100 µM (inactive) | > 100 µM (inactive) | > 100 µM (inactive) | > 100 µM (inactive) | > 100 µM (inactive) | > 100 µM |
| CN(C)CCCNc1ccnc2c([N+](=O)[O-])cccc12 | 22.2 µM (inactive) | 35.3 µM (inactive) | 10.5 µM (inactive) | > 10 µM (inactive) | > 10 µM (inactive) | 24.9 µM (inactive) | 21.8 µM (inactive) | 2.52 µM (inactive) | 3.56 µM (inactive) | – | 3.85 µM (inactive) | – | 31.1 µM (inactive) | 22.2 µM |
